According to ChEMBL document CHEMBL1146367, “Substituted thiophene-anthranilamides as potent inhibitors of human factor Xa” (Bioorg Med Chem, 2007):

Key:
[1] = Binding affinity to bovine trypsin after 10 mins; set-up: species or system Bos taurus; conditions: read-out: Ki app
[2] = target: Prothrombin (Homo sapiens, UniProt P00734); test: Binding affinity to human thrombin after 10 mins; conditions: read-out: Ki app
[3] = tested on: Plasma; test: Anticoagulant activity in human plasma assessed as concentration required to double prothrombin time; type: functional, cell-free
[4] = target: Coagulation factor X (Homo sapiens, UniProt P00742); test: Binding affinity to human factor 10a after 10 mins; conditions: read-out: Ki app
Coagulation factor X, sequence (P00742 41-179 limits assumed): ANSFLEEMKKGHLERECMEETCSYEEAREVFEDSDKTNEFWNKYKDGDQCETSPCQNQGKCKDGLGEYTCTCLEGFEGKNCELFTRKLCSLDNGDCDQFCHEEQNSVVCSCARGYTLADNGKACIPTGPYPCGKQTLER
Coagulation factor X, sequence (P00742 235-488 limits assumed): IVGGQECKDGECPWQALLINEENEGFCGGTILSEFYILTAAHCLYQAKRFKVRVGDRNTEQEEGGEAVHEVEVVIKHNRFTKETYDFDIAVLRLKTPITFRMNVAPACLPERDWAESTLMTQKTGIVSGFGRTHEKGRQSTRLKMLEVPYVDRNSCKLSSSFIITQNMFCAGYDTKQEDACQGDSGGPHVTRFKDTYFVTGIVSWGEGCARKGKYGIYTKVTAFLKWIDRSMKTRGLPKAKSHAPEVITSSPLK

[5] = Volume of distribution at steady state in Beagle dog at 1 mg/kg, iv; type: ADME, organism-based, Canis lupus familiaris; set-up: dose 1 mg/kg, route intravenous; conditions: in vivo, read-out: Vdss
[6] = Clearance in Beagle dog at 1 mg/kg, iv; type: ADME, organism-based, Canis lupus familiaris; set-up: dose 1 mg/kg, route intravenous; conditions: in vivo
[7] = Bioavailability in Beagle dog at 10 mg/kg, po; type: ADME, organism-based, Canis lupus familiaris; conditions: in vivo
[8] = Half life in Beagle dog at 1 mg/kg, iv; type: ADME, organism-based, Canis lupus familiaris; set-up: dose 1 mg/kg, route intravenous; conditions: in vivo
[9] = Plasma concentration in Beagle dog at 10 mg/kg, po; type: ADME, organism-based, Canis lupus familiaris; set-up: dose 10 mg/kg, route oral
[10] = Dissociation constant, pKa of the compound; type: physicochemical

O=C(Nc1ccc(Cl)cc1)c1cc(Cl)ccc1NC(=O)c1sc2ccccc2c1Cl
Ki [1]: > 5000 nM | Ki [2]: > 5000 nM

CN(CCOCCO)Cc1csc(C(=O)Nc2ccc(Cl)cc2C(=O)Nc2ccc(Cl)cc2)c1Cl
Cp [3]: 8.8 µM | Ki [1]: > 5000 nM | Ki [4]: 1.5 nM | Ki [2]: 1100 nM

O=C(Nc1ccc(Cl)cc1)c1cc(Cl)ccc1NC(=O)c1scc(Cn2cccn2)c1Cl
Cp [3]: 49 µM | Ki [1]: > 5000 nM | Ki [4]: 2.1 nM | Ki [2]: 550 nM

CSCc1csc(C(=O)Nc2ccc(Cl)cc2C(=O)Nc2ccc(Cl)cc2)c1Cl
Cp [3]: > 200 µM | Ki [1]: > 5000 nM | Ki [4]: 0.8 nM | Ki [2]: > 5000 nM

O=C(Nc1ccc(Cl)cc1)c1cc(Cl)ccc1NC(=O)c1scc(Cn2ncnn2)c1Cl
Cp [3]: 63 µM | Ki [1]: > 5000 nM | Ki [4]: 2 nM | Ki [2]: > 5000 nM

Cc1cccc2sc(C(=O)Nc3ccc(Cl)cc3C(=O)Nc3ccc(Cl)cc3)c(Cl)c12
Ki [1]: > 5000 nM | Ki [4]: > 5000 nM | Ki [2]: > 5000 nM

COCCOCc1csc(C(=O)Nc2ccc(Cl)cc2C(=O)Nc2ccc(Cl)cc2)c1Cl
Cp [3]: 110 µM | Ki [1]: > 5000 nM | Ki [4]: 12 nM | Ki [2]: > 5000 nM

CN(C)CCN(C)Cc1csc(C(=O)Nc2ccc(Cl)cc2C(=O)Nc2ccc(Cl)cc2)c1Cl
Cp [3]: 4.6 µM | Ki [1]: > 5000 nM | Ki [4]: 0.45 nM | Ki [2]: 160 nM

O=C(Nc1ccc(Cl)cc1)c1cc(Cl)ccc1NC(=O)c1scc(Cn2ccnn2)c1Cl
Cp [3]: 15 µM | Ki [1]: > 5000 nM | Ki [4]: 1.4 nM | Ki [2]: 2700 nM

O=C(Nc1ccc(Cl)cc1)c1cc(Cl)ccc1NC(=O)c1sc(Cn2ccnc2)cc1Cl
Cp [3]: 24 µM | Ki [1]: > 5000 nM | Ki [4]: 7.2 nM | Ki [2]: 510 nM

O=C(O)CN1CCN(Cc2ccc3c(Cl)c(C(=O)Nc4ccc(Cl)cc4C(=O)Nc4ccc(Cl)cc4)sc3c2)CC1
Ki [1]: > 5000 nM | Ki [4]: 9.5 nM | Ki [2]: > 5000 nM

O=C(Nc1ccc(Cl)cc1)c1cc(Cl)ccc1NC(=O)c1scc(CNCCCn2ccnc2)c1Cl
Cp [3]: 24 µM | Ki [1]: > 5000 nM | Ki [4]: 4.6 nM | Ki [2]: 1800 nM

O=C(Nc1ccc(Cl)cc1)c1cc(Cl)ccc1NC(=O)c1scc(CN2CCSCC2)c1Cl
Cp [3]: 400 µM | Ki [1]: > 5000 nM | Ki [4]: 4.8 nM | Ki [2]: > 5000 nM

Cc1ccc2c(Cl)c(C(=O)Nc3ccc(Cl)cc3C(=O)Nc3ccc(Cl)cc3)sc2c1
Ki [1]: > 5000 nM | Ki [4]: 0.95 nM | Ki [2]: > 5000 nM

CN(CCN1CCCC1)Cc1csc(C(=O)Nc2ccc(Cl)cc2C(=O)Nc2ccc(Cl)cc2)c1Cl
Cp [3]: 5 µM | Ki [1]: > 5000 nM | Ki [4]: 0.3 nM | Ki [2]: 160 nM

CCN(CC)CCN(C)Cc1csc(C(=O)Nc2ccc(Cl)cc2C(=O)Nc2ccc(Cl)cc2)c1Cl
Cp [3]: 3.9 µM | Ki [1]: > 5000 nM | Ki [4]: 0.52 nM | Ki [2]: 120 nM

CN(C)Cc1ccc2c(Cl)c(C(=O)Nc3ccc(Cl)cc3C(=O)Nc3ccc(Cl)cc3)sc2c1
Ki [1]: > 5000 nM | Ki [4]: 14 nM | Ki [2]: > 5000 nM

CN1CCN(Cc2ccc3c(Cl)c(C(=O)Nc4ccc(Cl)cc4C(=O)Nc4ccc(Cl)cc4)sc3c2)CC1
Ki [1]: > 5000 nM | Ki [4]: 21 nM | Ki [2]: > 5000 nM

CCCNCc1sc(C(=O)Nc2ccc(Cl)cc2C(=O)Nc2ccc(Cl)cc2)c(Cl)c1CNCCC
Cp [3]: 19 µM | Ki [1]: > 5000 nM | Ki [4]: 7.5 nM | Ki [2]: 1500 nM

CC1(C)OCC(COCc2csc(C(=O)Nc3ccc(Cl)cc3C(=O)Nc3ccc(Cl)cc3)c2Cl)O1 (centres undefined)
Ki [1]: > 5000 nM | Ki [4]: 20 nM | Ki [2]: > 5000 nM

CN(Cc1csc(C(=O)Nc2ccc(Cl)cc2C(=O)Nc2ccc(Cl)cc2)c1Cl)CC(O)CO (centres undefined)
Cp [3]: 11 µM | Ki [1]: > 5000 nM | Ki [4]: 1.4 nM | Ki [2]: 990 nM

O=C(Nc1ccc(Cl)cc1)c1cc(Cl)ccc1NC(=O)c1scc(Cn2ccnc2)c1Cl
Cp [3]: 18 µM | Ki [1]: > 5000 nM | Ki [4]: 1.9 nM | Ki [2]: 1000 nM

CN(C)CCCN(C)Cc1csc(C(=O)Nc2ccc(Cl)cc2C(=O)Nc2ccc(Cl)cc2)c1Cl
Cp [3]: 2.9 µM | Ki [1]: > 5000 nM | Ki [4]: 0.6 nM | Ki [2]: 190 nM

CS(=O)(=O)Cc1csc(C(=O)Nc2ccc(Cl)cc2C(=O)Nc2ccc(Cl)cc2)c1Cl
Cp [3]: 14 µM | Ki [1]: > 5000 nM | Ki [4]: 2.1 nM | Ki [2]: > 5000 nM

CN1CCN(Cc2csc(C(=O)Nc3ccc(Cl)cc3C(=O)Nc3ccc(Cl)cc3)c2Cl)CC1
Cp [3]: 12 µM | Vd [5]: 0.7 L/kg | Ki [1]: > 5000 nM | clearance [6]: 5 mL/min/kg | bioavailability [7]: 41% | half-life [8]: 2 h | Ki [4]: 1 nM | Ki [2]: 910 nM | Cmax [9]: 6.3 µM

CN(C)Cc1c(C(=O)Nc2ccc(Cl)cc2C(=O)Nc2ccc(Cl)cc2)sc2ccccc12
Ki [1]: > 5000 nM | Ki [4]: 9 nM | Ki [2]: 1200 nM

Cc1csc(C(=O)Nc2ccc(Cl)cc2C(=O)Nc2ccc(Cl)cc2)c1Cl
Ki [1]: > 5000 nM | Ki [4]: 18 nM | Ki [2]: > 5000 nM

O=C(Nc1ccc(Cl)cc1)c1cc(Cl)ccc1NC(=O)c1scc(Cn2cnnn2)c1Cl
Cp [3]: 29 µM | Ki [1]: > 5000 nM | Ki [4]: 1.7 nM | Ki [2]: > 5000 nM

O=C(Nc1ccc(Cl)cc1)c1cc(Cl)ccc1NC(=O)c1sc(CN2CCOCC2)cc1Cl
Cp [3]: > 500 µM | Ki [1]: > 5000 nM | Ki [4]: 34 nM | Ki [2]: > 5000 nM

CN1CCC(N(C)Cc2csc(C(=O)Nc3ccc(Cl)cc3C(=O)Nc3ccc(Cl)cc3)c2Cl)CC1
Cp [3]: 3.2 µM | Ki [1]: > 5000 nM | Ki [4]: 0.38 nM | Ki [2]: 310 nM

CN1CCN(Cc2c(C(=O)Nc3ccc(Cl)cc3C(=O)Nc3ccc(Cl)cc3)sc3ccccc23)CC1
Ki [1]: > 5000 nM | Ki [4]: 20 nM | Ki [2]: 1000 nM

O=C(Nc1ccc(Cl)cc1)c1cc(Cl)ccc1NC(=O)c1scc(Cn2cncn2)c1Cl
Cp [3]: 18 µM | Ki [1]: > 5000 nM | Ki [4]: 1.6 nM | Ki [2]: 2400 nM

Cc1c(C(=O)Nc2ccc(Cl)cc2C(=O)Nc2ccc(Cl)cc2)sc2ccccc12
Ki [1]: > 5000 nM | Ki [4]: 0.82 nM | Ki [2]: > 5000 nM

O=C(Nc1ccc(Cl)cc1)c1cc(Cl)ccc1NC(=O)c1scc(CNCCOCCO)c1Cl
Cp [3]: 20 µM | Ki [1]: > 5000 nM | Ki [4]: 3.4 nM | Ki [2]: 3200 nM

CN(CCO)Cc1csc(C(=O)Nc2ccc(Cl)cc2C(=O)Nc2ccc(Cl)cc2)c1Cl
Cp [3]: 7 µM | Ki [1]: > 5000 nM | Ki [4]: 0.8 nM | Ki [2]: 830 nM

O=C(Nc1ccc(Cl)cc1)c1cc(Cl)ccc1NC(=O)c1scc(COCC(O)CO)c1Cl (centres undefined)
Cp [3]: 30 µM | Ki [1]: > 5000 nM | Ki [4]: 5.7 nM | Ki [2]: 2400 nM

O=C(Nc1ccc(Cl)cc1)c1cc(Cl)ccc1NC(=O)c1scc(Cn2nccn2)c1Cl
Cp [3]: 83 µM | Ki [1]: > 5000 nM | Ki [4]: 3.5 nM | Ki [2]: 3300 nM

C[S+]([O-])Cc1csc(C(=O)Nc2ccc(Cl)cc2C(=O)Nc2ccc(Cl)cc2)c1Cl (centres undefined)
Cp [3]: 5.6 µM | Ki [1]: > 5000 nM | Ki [4]: 0.4 nM | Ki [2]: 970 nM

Cc1c(CN2CCN(C)CC2)sc(C(=O)Nc2ccc(Cl)cc2C(=O)Nc2ccc(Cl)cc2)c1Cl
Cp [3]: 58 µM | Ki [1]: > 5000 nM | Ki [4]: 10 nM | Ki [2]: 1500 nM

CCN1CCN(Cc2csc(C(=O)Nc3ccc(Cl)cc3C(=O)Nc3ccc(Cl)cc3)c2Cl)CC1
Cp [3]: 12 µM | Ki [1]: > 5000 nM | Ki [4]: 1.6 nM | Ki [2]: > 5000 nM

Cc1sc(C(=O)Nc2ccc(Cl)cc2C(=O)Nc2ccc(Cl)cc2)c(Cl)c1CN1CCN(C)CC1
Cp [3]: 25 µM | Ki [1]: > 5000 nM | Ki [4]: 12 nM | Ki [2]: 4400 nM

CN1CCN(Cc2cc(Cl)c(C(=O)Nc3ccc(Cl)cc3C(=O)Nc3ccc(Cl)cc3)s2)CC1
Cp [3]: 13 µM | Ki [1]: > 5000 nM | Ki [4]: 5.6 nM | Ki [2]: 1000 nM

CCOC(=O)CN(C)Cc1csc(C(=O)Nc2ccc(Cl)cc2C(=O)Nc2ccc(Cl)cc2)c1Cl
Cp [3]: 160 µM | Ki [1]: > 5000 nM | Ki [4]: 5.2 nM | Ki [2]: 2300 nM

O=C(Nc1ccc(Cl)cc1)c1cc(Cl)ccc1NC(=O)c1scc(CN2CCOCC2)c1Cl
Cp [3]: 59 µM | Ki [1]: > 5000 nM | Ki [4]: 6.2 nM | Ki [2]: 2300 nM

CC(=O)N1CCN(Cc2csc(C(=O)Nc3ccc(Cl)cc3C(=O)Nc3ccc(Cl)cc3)c2Cl)CC1
Ki [1]: > 5000 nM | Ki [4]: 6 nM | Ki [2]: 4400 nM

CN(C)CCSCc1csc(C(=O)Nc2ccc(Cl)cc2C(=O)Nc2ccc(Cl)cc2)c1Cl
Cp [3]: 19 µM | pKa [10]: 8.9 | Ki [1]: > 5000 nM | Ki [4]: 2.7 nM | Ki [2]: 560 nM

Cc1cc(Cl)c(C(=O)Nc2ccc(Cl)cc2C(=O)Nc2ccc(Cl)cc2)s1
Ki [1]: > 5000 nM | Ki [4]: 24 nM | Ki [2]: > 5000 nM

COCCOCCOCc1csc(C(=O)Nc2ccc(Cl)cc2C(=O)Nc2ccc(Cl)cc2)c1Cl
Cp [3]: 95 µM | Ki [1]: > 5000 nM | Ki [4]: 10 nM | Ki [2]: 3600 nM
